“Also recorded” adds a separate entry of the source. Ends that are not written are not given here.
Tests used:
Type in all cases: cell-based, human
[1] = system: peptide-pulsed A24LCL cells; experiment: IFN-gamma ELISPOT assay on CTLs induced with HLA-A*2402 restricted peptides; conditions: against peptide-pulsed target cells compared with control without peptide
[2] = system: peptide-pulsed A24LCL cells; experiment: IFN-gamma ELISA assay on CTL lines (HLA-A*2402); conditions: target cells pulsed with corresponding peptide vs without peptide
peptide-pulsed T2 cells [3] = experiment: IFN-gamma ELISPOT assay on CTLs induced with HLA-A*0201 restricted peptides; conditions: against peptide-pulsed target cells compared with control without peptide
peptide-pulsed T2 cells [4] = experiment: IFN-gamma ELISA assay on CTL lines (HLA-A*0201); conditions: target cells pulsed with corresponding peptide vs without peptide
peptide-pulsed T2 cells [5] = experiment: IFN-gamma ELISA assay on CTL clones established by limiting dilution (HLA-A*0201); conditions: peptide-pulsed target cells
Experimental: The dilutions were made to have 0.3, 1, and 3 CTLs/well in 96 round-bottomed micro titer plate (Nalge Nunc International). CTLs were cultured with 1×10^4 cells/well of 2 kinds of human B-lymphoblastoid cell lines, 30 ng/ml of anti-CD3 antibody, and 125 U/ml of IL-2 in a total of 150 and/well of AIM-VMedium containing 5% AS. 50 mcl/well of IL-2 were added to the medium 10 days later so to reach a final concentration of 125 U/ml IL-2. CTL activity was tested on the 14th day, and CTL clones were expanded using the same method as described above (Uchida N et al., Clin Cancer Res 2004 Dec. 15, 10(24): 8577-86; Suda T et al., Cancer Sci 2006 May, 97(5): 411-9; Watanabe T et al., Cancer Sci 2005 August, 96(8): 498-506).
Specifically, peptide-pulsed A24 or T2 LCL (1×10^4/well) was prepared as stimulator cells. Cultured cells in 48 wells were used as responder cells. IFN-gamma ELISPOT assay and IFN-gamma ELISA assay were performed under manufacture procedure.

AYQHLFYLL [SEQ ID NO: 2]
IFN-gamma production of peptide-induced CTLs (ELISPOT) ([1]; listed as IQGAP3-A24-9-955): potent IFN-gamma production ability | IFN-gamma production of established CTL lines (ELISA) [2]: potent IFN-gamma production

CFAPSVVPL [SEQ ID NO: 21]
IFN-gamma production of peptide-induced CTLs (ELISPOT) ([1]; listed as IQGAP3-A24-9-74): potent IFN-gamma production ability | IFN-gamma production of established CTL lines (ELISA) [2]: potent IFN-gamma production

FLAEaELLKL (FLAEAELLKL; not fully specified (residue 5); printed as FLAEaELLKL) [SEQ ID NO: 113]
IFN-gamma production of peptide-induced CTLs (ELISPOT) (peptide-pulsed T2 cells [3]): no specific IFN-gamma production

FLRTWLPAV [SEQ ID NO: 101]
IFN-gamma production of peptide-induced CTLs (ELISPOT) (peptide-pulsed T2 cells [3]; listed as IQGAP3-A02-9-756): potent IFN-gamma production ability | IFN-gamma production of established CTL lines (ELISA) (peptide-pulsed T2 cells [4]): potent IFN-gamma production

GLLVkNRITL (GLLVKNRITL; not fully specified (residue 5); printed as GLLVkNRITL) [SEQ ID NO: 130]
IFN-gamma production of peptide-induced CTLs (ELISPOT) (peptide-pulsed T2 cells [3]; listed as IQGAP3-A02-10-903): potent IFN-gamma production ability | IFN-gamma production of established CTL lines (ELISA) (peptide-pulsed T2 cells [4]): potent IFN-gamma production | IFN-gamma production of CTL clones (ELISA) (peptide-pulsed T2 cells [5]; listed as IQGAP3-A02-10-903): potent IFN-gamma production

GLVDeLAKDI (GLVDELAKDI; not fully specified (residue 5); printed as GLVDeLAKDI) [SEQ ID NO: 145]
IFN-gamma production of peptide-induced CTLs (ELISPOT) (peptide-pulsed T2 cells [3]; listed as IQGAP3-A02-10-1461): potent IFN-gamma production ability | IFN-gamma production of established CTL lines (ELISA) (peptide-pulsed T2 cells [4]): potent IFN-gamma production | IFN-gamma production of CTL clones (ELISA) (peptide-pulsed T2 cells [5]; listed as IQGAP3-A02-10-1461): potent IFN-gamma production

HALGAVAQLL [SEQ ID NO: 67]
IFN-gamma production of peptide-induced CTLs (ELISPOT) ([1]; listed as IQGAP3-A24-10-1207): potent IFN-gamma production ability | IFN-gamma production of established CTL lines (ELISA) [2]: potent IFN-gamma production

ILVHaPHPPL (ILVHAPHPPL; not fully specified (residue 5); printed as ILVHaPHPPL) [SEQ ID NO: 148]
IFN-gamma production of peptide-induced CTLs (ELISPOT) (peptide-pulsed T2 cells [3]; listed as IQGAP3-A02-10-842): potent IFN-gamma production ability | IFN-gamma production of established CTL lines (ELISA) (peptide-pulsed T2 cells [4]): potent IFN-gamma production

IMDkIGLLV [SEQ ID NO: 150]
IFN-gamma production of peptide-induced CTLs (ELISPOT) (peptide-pulsed T2 cells [3]; listed as IQGAP3-A02-10-897): potent IFN-gamma production ability | IFN-gamma production of established CTL lines (ELISA) (peptide-pulsed T2 cells [4]): potent IFN-gamma production

KALQDPALAL [SEQ ID NO: 57]
IFN-gamma production of peptide-induced CTLs (ELISPOT) ([1]; listed as IQGAP3-A24-10-314): potent IFN-gamma production ability | IFN-gamma production of established CTL lines (ELISA) [2]: potent IFN-gamma production

KAQELGLVEL [SEQ ID NO: 53]
IFN-gamma production of peptide-induced CTLs (ELISPOT) ([1]; listed as IQGAP3-A24-10-345): potent IFN-gamma production ability | IFN-gamma production of established CTL lines (ELISA) [2]: potent IFN-gamma production

KIGGILANEL [SEQ ID NO: 56]
IFN-gamma production of peptide-induced CTLs (ELISPOT) ([1]; listed as IQGAP3-A24-10-191): potent IFN-gamma production ability | IFN-gamma production of established CTL lines (ELISA) [2]: potent IFN-gamma production

KLGHcFAPSV (KLGHCFAPSV; not fully specified (residue 5); printed as KLGHcFAPSV) [SEQ ID NO: 114]
IFN-gamma production of peptide-induced CTLs (ELISPOT) (peptide-pulsed T2 cells [3]; listed as IQGAP3-A02-10-70): potent IFN-gamma production ability | IFN-gamma production of established CTL lines (ELISA) (peptide-pulsed T2 cells [4]): potent IFN-gamma production

KVNVNLLIFL [SEQ ID NO: 55]
IFN-gamma production of peptide-induced CTLs (ELISPOT) ([1]; listed as IQGAP3-A24-10-1614): potent IFN-gamma production ability | IFN-gamma production of established CTL lines (ELISA) [2]: potent IFN-gamma production

LEAYqHLFYL (LEAYQHLFYL; not fully specified (residue 5); printed as LEAYqHLFYL) [SEQ ID NO: 139]
IFN-gamma production of peptide-induced CTLs (ELISPOT) (peptide-pulsed T2 cells [3]; listed as IQGAP3-A02-10-953): potent IFN-gamma production ability | IFN-gamma production of established CTL lines (ELISA) (peptide-pulsed T2 cells [4]): potent IFN-gamma production

LLAKlGHCFA (LLAKLGHCFA; not fully specified (residue 5); printed as LLAKlGHCFA) [SEQ ID NO: 143]
IFN-gamma production of peptide-induced CTLs (ELISPOT) (peptide-pulsed T2 cells [3]; listed as IQGAP3-A02-10-67): potent IFN-gamma production ability | IFN-gamma production of established CTL lines (ELISA) (peptide-pulsed T2 cells [4]): potent IFN-gamma production | IFN-gamma production of CTL clones (ELISA) (peptide-pulsed T2 cells [5]; listed as IQGAP3-A02-10-67): potent IFN-gamma production

LLPAaGLDDV (LLPAAGLDDV; not fully specified (residue 5); printed as LLPAaGLDDV) [SEQ ID NO: 125]
IFN-gamma production of peptide-induced CTLs (ELISPOT) (peptide-pulsed T2 cells [3]; listed as IQGAP3-A02-10-548): potent IFN-gamma production ability | IFN-gamma production of established CTL lines (ELISA) (peptide-pulsed T2 cells [4]): potent IFN-gamma production

MYQLELAVL [SEQ ID NO: 6]
IFN-gamma production of peptide-induced CTLs (ELISPOT) ([1]; listed as IQGAP3-A24-9-417): typical negative data of CTL response; also recorded: no specific IFN-gamma production | IFN-gamma production of established CTL lines (ELISA) [2]: no specific IFN-gamma production | IFN-gamma production of established CTL lines (ELISA) ([2]; listed as IQGAP3-A24-9-417): typical negative data of CTL response

PYDVTPEQAL [SEQ ID NO: 49]
IFN-gamma production of peptide-induced CTLs (ELISPOT) ([1]; listed as IQGAP3-A24-10-1097): potent IFN-gamma production ability | IFN-gamma production of established CTL lines (ELISA) [2]: potent IFN-gamma production

QLHYqDLLQL (QLHYQDLLQL; not fully specified (residue 5); printed as QLHYqDLLQL) [SEQ ID NO: 140]
IFN-gamma production of peptide-induced CTLs (ELISPOT) (peptide-pulsed T2 cells [3]; listed as IQGAP3-A02-10-1590): potent IFN-gamma production ability | IFN-gamma production of established CTL lines (ELISA) (peptide-pulsed T2 cells [4]): potent IFN-gamma production

QYEGVAVMKL [SEQ ID NO: 35]
IFN-gamma production of peptide-induced CTLs (ELISPOT) ([1]; listed as IQGAP3-A24-10-1600): potent IFN-gamma production ability | IFN-gamma production of established CTL lines (ELISA) [2]: potent IFN-gamma production

RLDIALRNLL [SEQ ID NO: 63]
IFN-gamma production of peptide-induced CTLs (ELISPOT) ([1]; listed as IQGAP3-A24-10-1114): potent IFN-gamma production ability | IFN-gamma production of established CTL lines (ELISA) [2]: potent IFN-gamma production

RNGVLLAKL [SEQ ID NO: 32]
IFN-gamma production of peptide-induced CTLs (ELISPOT) ([1]; listed as IQGAP3-A24-9-63): potent IFN-gamma production ability | IFN-gamma production of established CTL lines (ELISA) [2]: potent IFN-gamma production

RQNVAYQYL [SEQ ID NO: 25]
IFN-gamma production of peptide-induced CTLs (ELISPOT) ([1]; listed as IQGAP3-A24-9-26): potent IFN-gamma production ability | IFN-gamma production of established CTL lines (ELISA) [2]: potent IFN-gamma production

RSLLLSTKQL [SEQ ID NO: 62]
IFN-gamma production of peptide-induced CTLs (ELISPOT) ([1]; listed as IQGAP3-A24-10-1363): potent IFN-gamma production ability | IFN-gamma production of established CTL lines (ELISA) [2]: potent IFN-gamma production

RVVYCIHAL [SEQ ID NO: 29]
IFN-gamma production of peptide-induced CTLs (ELISPOT) ([1]; listed as IQGAP3-A24-9-137): potent IFN-gamma production ability | IFN-gamma production of established CTL lines (ELISA) [2]: potent IFN-gamma production

SMYQlELAVL (SMYQLELAVL; not fully specified (residue 5); printed as SMYQlELAVL) [SEQ ID NO: 142]
IFN-gamma production of peptide-induced CTLs (ELISPOT) (peptide-pulsed T2 cells [3]; listed as IQGAP3-A02-10-416): potent IFN-gamma production ability | IFN-gamma production of established CTL lines (ELISA) (peptide-pulsed T2 cells [4]): potent IFN-gamma production

VYCIHALSLF [SEQ ID NO: 40]
IFN-gamma production of peptide-induced CTLs (ELISPOT) ([1]; listed as IQGAP3-A24-10-139): potent IFN-gamma production ability | IFN-gamma production of established CTL lines (ELISA) [2]: potent IFN-gamma production

VYKVVGNLL [SEQ ID NO: 4]
IFN-gamma production of peptide-induced CTLs (ELISPOT) ([1]; listed as IQGAP3-A24-9-1167): potent IFN-gamma production ability | IFN-gamma production of established CTL lines (ELISA) [2]: potent IFN-gamma production

YLLQtQPIYL (YLLQTQPIYL; not fully specified (residue 5); printed as YLLQtQPIYL) [SEQ ID NO: 111]
IFN-gamma production of peptide-induced CTLs (ELISPOT) (peptide-pulsed T2 cells [3]; listed as IQGAP3-A02-10-961): potent IFN-gamma production ability | IFN-gamma production of established CTL lines (ELISA) (peptide-pulsed T2 cells [4]): potent IFN-gamma production

YYSQYIRACL [SEQ ID NO: 37]
IFN-gamma production of peptide-induced CTLs (ELISPOT) ([1]; listed as IQGAP3-A24-10-1507): potent IFN-gamma production ability | IFN-gamma production of established CTL lines (ELISA) [2]: potent IFN-gamma production
